Counter-ions that a name gives are not always drawn. Like-named read-outs stand apart in the source and are kept apart here.
Experiments:
[1] = test system: acute HIV infection of T-lymphoid cells; assay: Assay for inhibition of HIV replication (spread assay); assay type: cell-based, HIV-1; conditions: read-out: Spread - IC95
Protocol: • Assay for Inhibition of HIV Replication
Assays for the inhibition of acute HIV infection of T-lymphoid cells were conducted in accordance with Vacca, J. P. et al., Proc. Natl. Acad. Sci. USA 1994, 91: 4096.

wild-type HIV-1 protease = wild-type HIV-1 protease (Human immunodeficiency virus type 1 group M subtype B, UniProt P04585); assay: Assay for inhibition of microbial expressed HIV protease; assay type: biochemical
Outline: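 Inhibition taken from HPLC (C18) product peak areas after phosphoric acid quench. Reaction: 440 micromolar Val-Ser-Gln-Asn-(betanapthyl)Ala-Pro-Ile-Val peptide, 5 pM E. coli-made protease, 1 h at 30° C, following 30 min room-temperature inhibitor preincubation in pH 5.5 acetate/NaCl/BSA buffer.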

[2] = Human immunodeficiency virus 1, T-lymphoid
[3] = wild-type HIV-1 protease expressed in E. coli, peptide substrate, pH 5.5, read-out: Enzyme Inhibition - IC50

Compound | IC95 [1, 2] | IC50 (wild-type HIV-1 protease; [3]) | IC50 (wild-type HIV-1 protease) | IC95 ([1]; inhibition of HIV-1 replication, 10% FBS)
COC(=O)N[C@H](C(=O)N[C@H](CCC[C@@H](CO)N(C(C)C)S(=O)(=O)c1ccc(CO)cc1)C(F)(F)F)C(c1ccccc1)c1ccccc1 [Example J40, N-[(1R,5S)-6-hydroxy-5-[{[4-(hydroxymethyl)phenyl]sulfonyl}(isopropyl)amino]-1-(trifluoromethyl)hexyl]-Nα-(methoxycarbonyl)-β-phenyl-L-phenylalaninamide] | 34 nM | 0.015 nM |  | 
CCCN([C@H](CO)CCC[C@H](CC)NC(=O)[C@H](Cc1cccc2ccccc12)NC(=O)OC)S(=O)(=O)c1ccc(CO)cc1 [Example J41, methyl [(1S)-2-({(1S,5S)-1-ethyl-6-hydroxy-5-[{[4-(hydroxymethyl)phenyl]sulfonyl}(propyl)amino]hexyl}amino)-1-(1-naphthylmethyl)-2-oxoethyl]carbamate] | 54 nM | 0.564 nM |  | 
CCCN([C@H](CO)CCC[C@@H](NC(=O)[C@H](Cc1ccccc1Cl)NC(=O)OC)C(F)(F)F)S(=O)(=O)c1ccc(CO)cc1 [Example J43, 2-chloro-N-[(1R,5S)-6-hydroxy-5-[{[4-(hydroxymethyl)phenyl]sulfonyl}(propyl)amino]-1-(trifluoromethyl)hexyl]-Nα-(methoxycarbonyl)-L-phenylalaninamide] | 116 nM | 0.126 nM |  | 
CC[C@@H](CCC[C@@H](CO)N(CCC(C)C)S(=O)(=O)c1ccc(CO)cc1)NC(=O)[C@@H](NC(=O)OC)C(c1ccc(Cl)cc1)c1ccc(Cl)cc1 [Example J44, 4-chloro-β-(4-chlorophenyl)-N-{(1S,5S)-1-ethyl-6-hydroxy-5-[{[4-(hydroxymethyl)phenyl]sulfonyl}(3-methylbutyl)amino]hexyl}-Nα-(metboxycarbonyl)-L-phenylalaninamide] | 126 nM | 0.081 nM |  | 
COC(=O)NC(Cc1cccc(Cl)c1Cl)C(=O)N[C@@H](C)CCC[C@@H](CO)N(C(C)C)S(=O)(=O)c1ccc(CO)cc1 (stereo partly drawn) [Example J45, 2,3-dichloro-N-{(1S,5S)-6-hydroxy-5-[{[4-(hydroxymethyl)phenyl]sulfonyl}(isopropyl)amino]-1-methylhexyl}-Nα-(methoxycarbonyl)phenylalaninamide] | 80 nM | 0.041 nM |  | 
COC(=O)NC(C(=O)N[C@@H](C)CCC[C@@H](CO)N(C(C)C)S(=O)(=O)c1ccc(CO)cc1)C(c1cccc(F)c1)c1cccc(F)c1 (stereo partly drawn) [Example J46, 3-fluoro-β-(3-fluorophenyl)-N-{(1S,5S)-6-hydroxy-5-[{[4-(hydroxymethyl)phenyl]sulfonyl}(isopropyl)amino]-1-methylhexyl}-Nα-(methoxycarbonyl)phenylalaninamide] | 18 nM | 0.01 nM |  | 
COC(=O)N[C@H](C(=O)N[C@@H](C)CCC[C@@H](CO)N(C(C)C)S(=O)(=O)c1ccc(CO)cc1)C(c1ccccc1)c1ccccc1 [Example K1, N-{(1S,5S)-6-hydroxy-5-[{[4-(hydroxymethyl)phenyl]sulfonyl}(isopropyl)amino]-1-methylhexyl}-Nα-(methoxycarbonyl)-β-phenyl-L-phenylalaninamide] | 13 nM | 0.018 nM |  | 
CC[C@@H](CCC[C@@H](CO)N(C(C)C)S(=O)(=O)c1ccc(C(C)=O)cc1)NC(=O)[C@@H](NC(=O)OC)C(c1ccccc1)c1ccccc1 [Example K3, N-{(1S,5S)-5-[[(4-acetylphenyl)sulfonyl](isopropyl)amino]-1-ethyl-6-hydroxyhexyl}-Nα-(methoxycarbonyl)-β-phenyl-L-phenylalaninamide] | 112 nM | 0.929 nM |  | 
COC(=O)N[C@H](C(=O)N[C@@H](C)CCC[C@@H](CO)N(C(C)C)S(=O)(=O)c1ccc([C@H](C)O)cc1)C(c1ccccc1)c1ccccc1 [Example K4, N-{(1S,5S)-6-hydroxy-5-[({4-[(1S)-1-hydroxyethyl]phenyl}sulfonyl)(isopropyl)amino]-1-methylhexyl}-Nα-(methoxycarbonyl)-β-phenyl-L-phenylalaninamide] | 19 nM | 0.015 nM |  | 
COC(=O)N[C@H](C(=O)N[C@@H](C)CCC[C@@H](CO)N(C(C)C)S(=O)(=O)c1ccc(C(C)=O)cc1)C(c1ccccc1)c1ccccc1 [Example K5, N-{(1S,5S)-5-[[(4-acetylphenyl)sulfonyl](isopropyl)amino]-6-bydroxy-1-methylhexyl}-Nα-(methoxycarbonyl)-β-phenyl-L-phenylalaninamide] | 41 nM | 0.284 nM |  | 
COC(=O)N[C@H](C(=O)NC1(CCC[C@@H](CO)N(CCC(C)C)S(=O)(=O)c2ccc(N)cc2)CCCC1)C(c1ccccc1)c1ccccc1 [Example L1, N-(1-{(4S)-4-[[(4-aminophenyl)sulfonyl](3-methylbutyl)amino]-5-hydroxypentyl}cyclopentyl)-Nα-(methoxycarbonyl)-β-phenyl-L-phenylalaninamide] | 274 nM | 0.37 nM |  | 
CC(C)N([C@H](CO)CCCC(C)(C)NC(=O)[C@@H](N)C(c1ccccc1)c1ccccc1)S(=O)(=O)c1ccc(N)cc1 [Example L2, N-{(5S)-5-[[(4-aminophenyl)sulfonyl](isopropyl)amino]-6-hydroxy-1,1-dimethylhexyl}-β-phenyl-L-phenylalaninamide] | 23 nM | 0.018 nM |  | 
COC(=O)N[C@H](C(=O)NC1(CCCC(CO)N(CCC(C)C)S(=O)(=O)c2ccc(N)cc2)CCC1)C(c1ccccc1)c1ccccc1 (stereo partly drawn) [Example L3, N-(1-{4-[[(4-aminophenyl)sulfonyl](3-methylbutyl)amino]-5-hydroxypentyl}cyclobutyl)-Nα-(methoxycarbonyl)-β-phenyl-L-phenylalaninamide] | 471 nM | 0.234 nM |  | 
COC(=O)N[C@H](C(=O)NC(C)(C)CCC[C@@H](CO)N(CCC(C)C)S(=O)(=O)c1ccc(N)cc1)C(c1ccccc1)c1ccccc1 [Example L4, N-{(5S)-5-[[(4-aminophenyl)sulfonyl](3-methylbutyl)amino]-6-hydroxy-1,1-dimethylhexyl}-Nα-(methoxycarbonyl)-β-phenyl-L-phenylalaninamide] | 41 nM | 0.01 nM |  | 
COC(=O)N[C@H](C(=O)NC(C)(C)CCC[C@@H](CO)N(CC(C)C)S(=O)(=O)c1ccc(N)cc1)C(c1ccccc1)c1ccccc1 [Example L5, N-{(5S)-5-[[(4-aminophenyl)sulfonyl](isobutyl)amino]-6-hydroxy-1,1-dimethylhexyl}-Nα-(methoxycarbonyl)-β-phenyl-L-phenylalaninamide] | 185 nM | 0.154 nM |  | 
CCCN([C@H](CO)CCCC(C)(C)NC(=O)[C@@H](NC(=O)OC)C(c1ccccc1)c1ccccc1)S(=O)(=O)c1ccc(N)cc1 [Example L6, N-{(5S)-5-[[(4-aminophenyl)sulfonyl](propyl)amino]-6-hydroxy-1,1-dimethylhexyl}-Nα-(methoxycarbonyl)-β-phenyl-L-phenylalaninamide] | 196 nM | 0.095 nM |  | 
COC(=O)N[C@H](C(=O)NC(C)(C)CCC[C@@H](CO)N(CCCF)S(=O)(=O)c1ccc(N)cc1)C(c1ccccc1)c1ccccc1 [Example L7, N-{(5S)-5-[[(4-aminophenyl)sulfonyl](3-fluoropropyl)amino]-6-hydroxy-1,1-dimethylhexyl}-Nα-(methoxycarbonyl)-β-phenyl-L-phenylalaninamide] | 178 nM | 0.062 nM |  | 
COC(=O)N[C@H](C(=O)NC(C)(C)CCC[C@@H](CO)N(C(C)C)S(=O)(=O)c1ccc(N)cc1)C(c1ccccc1)c1ccccc1 [Example L8] | 264 nM | 0.267 nM |  | 
CN[C@H](C(=O)NC(C)(C)CCC[C@@H](CO)N(C(C)C)S(=O)(=O)c1ccc(N)cc1)C(c1ccccc1)c1ccccc1 [Example L9, N-{(5S)-5-[[(4-aminophenyl)sulfonyl](isopropyl)amino]-6-hydroxy-1,1-dimethylhexyl}-Nα-methyl-β-phenyl-L-phenylalaninamide hydrochloride] | 26 nM |  | 0.1 nM | 
CC(C)N([C@H](CO)CCCC(C)(C)NC(=O)[C@@H](N)Cc1ccccc1Cl)S(=O)(=O)c1ccc(N)cc1 [Example L10, N-{(5S)-5-[[(4-aminophenyl)sulfonyl](isopropyl)amino]-6-hydroxy-1,1-dimethylhexyl}-2-chloro-L-phenylalaninamide hydrochloride] | 241 nM |  | 3.2 nM | 
Methyl {(1S)-1-(diphenylmethyl)-2-[((5S)-6-hydroxy-2-methyl-5-{(3-methylbutyl) [(4-methylphenyl)sulfonyl]amino}hexylamino]-2-oxoethyl}carbamate [Example C1] |  | 0.2 nM |  | 193 nM

— patent publication US20100093811A1 (priority 2007, published 2010)
